Results reported in patent US20090068290A1, “BIFEPRUNOX DOSES FOR TREATING SCHIZOPHRENIA” (priority 2006, published 2009).

What was measured:
[1] = test system: patients with chronic schizophrenia; assay: PANSS positive subscale score, Clinical Study Four; format: in vivo, human; settings: FAS, ANCOVA; for PANSS positive subscale, Adjusted Mean Change from Baseline (LS mean): LOCF
Protocol: (§1) METHODOLOGY: This study was a multinational, multicenter, randomized, double-blind, parallel-group, placebo-controlled, fixed-dose study. The study consisted of a 3- to 6-day antipsychotic-free run-in period, after which patients were randomised to 6 months of double-blind treatment with fixed doses of bifeprunox (20 mg/day (BX20) or 30 mg/day (BX30)) or placebo (PBO). Patients allocated to the BX groups were up-titrated from 0.25 mg/day over 7 days (BX20) or 8 days (BX30), and then continued on these doses for the remainder of the study. […] At predetermined time points, blood samples were obtained for drug concentration analysis of BX and its major metabolites (3′- and 4′-sulfate conjugates of BX), and pharmaco-economic assessments were performed.

[2] = Incidence of hyperglycemia and diabetes-related adverse events in placebo-controlled trials; format: in vivo, human
From the text: Hyperglycemia, in some cases extreme and associated with ketoacidosis or hyperosmolar coma or death, has been reported in patients treated with atypical antipsychotics. The incidence of hyperglycemia and diabetes-related adverse events (such as hyperglycemia, elevated blood glucose, impaired glucose tolerance, diabetes mellitus, inadequately controlled diabetes) in patients treated with bifeprunox was 0.5% (5/1050) and in placebo-treated patients was 0.6% (3/469) in six-week placebo-controlled trials. […] Assessment of the relationship between atypical antipsychotic use and glucose abnormalities is complicated by the possibility of an increased background risk of diabetes mellitus in patients with schizophrenia and the increasing incidence of diabetes mellitus in the general population. Given these confounders, the relationship between atypical antipsychotic use and hyperglycemia-related adverse events is not completely understood. […] Because bifeprunox was not marketed at the time these studies were performed, it is not known if bifeprunox is associated with this increased risk. Precise risk estimates for hyperglycemia-related adverse events in patients treated with atypical antipsychotics are not available.

[3] = test system: patients with chronic schizophrenia; assay: Adverse events incl. EPS TEAEs, Clinical Study Four; format: in vivo, human
Protocol: OTHER SECONDARY OBJECTIVE: To evaluate the long-term safety and tolerability of bifeprunox versus placebo.
as §1

[4] = Excretion of radioactivity after [14C]-labeled bifeprunox; settings: single oral dose of [14C]-labeled bifeprunox
[5] = Pooled metabolic analysis, 6-month study: body weight; settings: for Weight, Mean (SD) change from baseline: endpoint
From the text: OBJECTIVE: To examine the metabolic effects of bifeprunox in patients with acute and stable schizophrenia.
METHODS: Metabolic data was compiled from one 6-month and four 6-week studies (i.e., a treatment period) of bifeprunox in patients with stable and acute schizophrenia, respectively. In the 6-month study, patients received bifeprunox (n=331) or placebo (PBO) (n=166). […] Metabolic evaluations included body weight, body mass index (BMI), plasma glucose and lipid profiles. Fasting glucose and lipid values were assessed in one 6-week study and in the 6-month study. Triglyceride:HDL ratio (TG:HDL) was calculated as a marker of insulin resistance. No statistical analyses were performed; only descriptive statistics are presented.

[6] = test system: patients with chronic schizophrenia; assay: CGI-S score, Clinical Study Four; format: in vivo, human; settings: FAS, ANCOVA; for CGI-S, Adjusted Mean Change from Baseline (LS mean): LOCF; for mean CGI-S scores, time points of statistically significant superiority to PBO: per-visit LOCF analysis
Protocol: as §1

[7] = baseline BMI 18.5-25 kg/m^2, BX total doses
[8] = baseline BMI <18.5 kg/m^2, BX total doses
[9] = baseline BMI >25-30 kg/m^2, BX total doses
[10] = baseline BMI >30 kg/m^2, BX total doses
[11] = baseline BMI All, BX total doses

## O=c1[nH]c2cccc(N3CCN(Cc4cccc(-c5ccccc5)c4)CC3)c2o1 [Bifeprunox, 7-[4-([1,1′-biphenyl]-3-ylmethyl)-1-piperazinyl]-2(3H)-benzoxazolone]
[1]; BX20 or BX30
  PANSS positive subscale scores versus PBO, per-visit LOCF analysis: statistically significantly superior to that with PBO from Week 6 onwards
[1]; Month 6
  PANSS positive subscale, Adjusted Mean Change from Baseline (LS mean): 0.3
[1]; Week 6, listed as BX20
  PANSS positive subscale, Adjusted Mean Change from Baseline (LS mean): −0.9
[1]; Week 6, listed as BX30
  PANSS positive subscale, Adjusted Mean Change from Baseline (LS mean): −0.8
[2]; 26-week placebo-controlled trial
  hyperglycemia or diabetes-related adverse events: no patients reported
[2]; six-week placebo-controlled trials
  incidence of hyperglycemia and diabetes-related adverse events: 0.5%
[3]; BX20
  patients with TEAEs related to EPS that led to withdrawal: 4 patients
  weight decreased reported as a TEAE: 8%
[3]; BX20, APTS
  AKATHISIA, %: (6.9) %
  Choreoathetosis, %: (1.9) %
  DYSKINESIA, %: (1.3) %
  Dystonia, %: (0.6) %
  EPS TEAEs: MUSCULOSKELETAL AND CONNECTIVE TISSUE DISORDERS, %: (0.6) %
  EPS TEAEs: NERVOUS SYSTEM DISORDERS, %: (10.1) %
  EXTRAPYRAMIDAL DISORDER, %: (0.6) %
  Muscle rigidity, %: (0.6) %
  Patients with EPS TEAEs, %: (10.1) %
  TREMOR, %: (0.6) %
  proportion of patients with TEAEs related to EPS: 10%
[3]; BX30
  patients with TEAEs related to EPS that led to withdrawal: 9 patients
  weight decreased reported as a TEAE: 8%
  weight increased reported as a TEAE: 1.2%
[3]; BX30, APTS
  AKATHISIA, %: (4.7) %
  Athetosis, %: (0.6) %
  Choreoathetosis, %: (0.6) %
  DYSKINESIA, %: (6.4) %
  EPS TEAEs: MUSCULOSKELETAL AND CONNECTIVE TISSUE DISORDERS, %: (0.6) %
  EPS TEAEs: NERVOUS SYSTEM DISORDERS, %: (14.5) %
  EXTRAPYRAMIDAL DISORDER, %: (2.9) %
  Muscle rigidity, %: (0.6) %
  Patients with EPS TEAEs, %: (14.5) %
  TREMOR, %: (2.9) %
  proportion of patients with TEAEs related to EPS: 15%
[4]
  radioactivity excreted in the feces: 74%
  radioactivity excreted in the urine: 13%
[5]; [7]
  ≧7% weight decrease, (%): 8.7%
  ≧7% weight increase, (%): 3.3%
  Weight, Mean (SD) change from baseline: −0.9 (2.9) kg
[5]; [8]
  ≧7% weight decrease, (%): 23.1%
  Weight, Mean (SD) change from baseline: −0.8 (2.6) kg
[5]; [9]
  ≧7% weight decrease, (%): 4.7%
  ≧7% weight increase, (%): 2.4%
  Weight, Mean (SD) change from baseline: −0.9 (2.7) kg
[5]; [10]
  ≧7% weight decrease, (%): 12.8%
  Weight, Mean (SD) change from baseline: −3.0 (5.6) kg
[5]; [11]
  ≧7% weight decrease, (%): 8.8%
  ≧7% weight increase, (%): 2.5%
  Weight, Mean (SD) change from baseline: −1.1 (3.3) kg
[5]; final evaluation (LOCF)
  mean weight change: -1.1 kg
[5]; patients with nausea or vomiting
  mean change in weight: -1.4 kg
[5]; patients without nausea or vomiting
  mean change in weight: -1.0 kg
[6]; Month 6, listed as BX20
  CGI-S, Adjusted Mean Change from Baseline (LS mean): −0.1
[6]; Month 6, listed as BX30
  CGI-S, Adjusted Mean Change from Baseline (LS mean): 0.0
[6]; Week 6, listed as BX20
  CGI-S, Adjusted Mean Change from Baseline (LS mean): −0.2
[6]; Week 6, listed as BX30
  CGI-S, Adjusted Mean Change from Baseline (LS mean): −0.1
[6]; listed as BX20
  mean CGI-S scores, time points of statistically significant superiority to PBO: Months 3, 4, 5, and 6
[6]; listed as BX30
  mean CGI-S scores, time points of statistically significant superiority to PBO: Months 5 and 6
